# Test results as given in patent publication US8993606B2, “Oral formulations for treating metal overload” (FerroKin BioSciences, Inc., priority 2011, dated 2015).
# Experiments:
# Type in all cases: in vivo, human
# [1] = system: iron; test: Pharmacodynamics: iron in 24-hour urine
# Experimental: Urine was collected for 24 hours following administration of Compound 1. […] In other studies, a more sensitive urinary iron assay was employed (LLOQ 10 μg/dL).
# [2] = Preliminary analysis of pharmacokinetic results from the clinical studies as a whole
# Excerpt: The results were similar across the common doses in the 4 studies. […] See also FIG. 10.
# [3] = system: patients with transfusional iron overload; test: Example 11: efficacy study, R2 liver iron concentration per FerriScan MRI (text: mg/g liver dw)
# Experimental: The goal of this experiment was to: 1. evaluate the safety and tolerability based on clinical assessments of two doses (16 and 32 mg/kg/d) of Compound 1 when administered daily for 24 weeks to patients with transfusional iron overload; 2. identify a differential response between dose groups in liver iron concentration determined by magnetic resonance imaging (MRI) after 24 weeks of dosing; and 3. assess the safety and efficacy activity of Compound 1 when administered daily for up to 96 weeks.
# This experiment is an open-label, randomized study of two dose levels (16 and 32 mg/kg/d) of Compound 1 administered once daily for 24 weeks to eligible patients with transfusional iron overload requiring chelation therapy, with a dosing extension of 72 additional weeks.
# Patients were assigned to one of two strate: “high” or “low” transfusion burden based on the average iron intake of the six transfusion sessions. Patients within each transfusion burden groups were randomized to one of two Compound 1 treatment arms: 16 mg/kg/d (16 mpk) or 32 mg/kg/d (32 mpk). The stratification followed by randomization to treatment arms helps to ensure an equal distribution of patients with “high” and “low” transfusion burdens to the high or low dose of Compound 1. Each treatment arm received one dose of Compound 1 daily for 24 weeks.
# At the conclusion of the 24 week dosing period, patients who qualify and consent to continue treatment continued for an additional 72 weeks of Compound 1 dosing.
# The inclusion of 25 patients in each treatment group provided a statistical power of 0.80 to detect, within 6 months, an LIC difference (normalized for initial LIC) of 3 mg/g dry weight between the two dose groups as determined by MRI. Baseline characteristics between dose groups were compared using Fisher extract test or Wilcoxon rank sum test as appropriate. The change in baseline to week 12, 24, and 72 values for all pharmacodynamics parameters were analyzed by an ANCOVA model with main effect for treatment group with baselines value for the corresponding parameters and transfusion burdon (iron input) during the study and baseline liver iron concentration as covariates comparing the two active treatment groups. T2* values were natural log transformed and summarized as the geometric mean (the antilog of the mean of the log data) plus or minus the co-efficient of variation (CV) defined as square root of eMSE where MSE is defined as the mean square error and subject to ANCOVA setting the p value as the threshold for statistical significance at 0.05 (confidence level of 95%).
# Conducted was a multicenter, randomized, open-label study of adult subjects with documented transfusional iron overload in need of chelation therapy. Transfusional iron overload was defined as LIC by R2 (FerriScan®) magnetic resonance imaging (MRI)≧3.5 mg/g liver dw or serum ferritin>500 ng/mL. Subjects received investigational product for 24 weeks with an extension of 72 weeks for the evaluation of long-term safety and efficacy. The 24-week and 48-week pharmacodynamics results are described in this section. A total of 51 subjects enrolled and 49 completed the initial 24-week treatment period.
# [4] = randomized to 16 mg/kg/d, dose adjustments after week 24
# [5] = randomized to 32 mg/kg/d, dose adjustments after week 24
smiles,measurement,setting,value
"COCCOCCOCCOc1cccc(C2=N[C@@](C)(C(=O)O)CS2)c1O [Compound 1, (S)-4,5-Dihydro-2-[2-hydroxy-3-(3,6,9-trioxadecyloxy)phenyl]-4-methyl-4-thiazolecarboxylate magnesium hydroxide]",iron in 24 hour urine,"[1]; all doses, LLOQ of iron approximately 195 μg/dL",no detectable iron
same,"iron in urine, more sensitive assay","[1]; other studies, LLOQ 10 μg/dL, no dose-dependent trends",Iron was detected in the urine of all subjects
same,dose proportionality,"[2]; dosing range of 3 to 50 mg/kg, preliminary analysis",dose-proportionality in Cmax and AUC
same,Tmax,"[2]; human, plasma, oral, in each study",~1 h
same,"R2 LIC Change from Baseline to Week 12, Mean (SD)",[3]; 16 mg/kg/d,2.68 (4.050)
same,"R2 LIC Change from Baseline to Week 12, Median",[3]; 16 mg/kg/d,0.90
same,"R2 LIC Change from Baseline to Week 24, Mean (SD)",[3]; 16 mg/kg/d,3.08 (5.552)
same,"R2 LIC Change from Baseline to Week 24, Median",[3]; 16 mg/kg/d,1.10
same,"R2 LIC Week 12, Mean (SD)",[3]; 16 mg/kg/d,15.90 (9.446)
same,"R2 LIC Week 12, Median",[3]; 16 mg/kg/d,11.70
same,"R2 LIC Week 24, Mean (SD)",[3]; 16 mg/kg/d,16.31 (10.570)
same,"R2 LIC Week 24, Median",[3]; 16 mg/kg/d,11.50
same,"R2 LIC Change from Baseline to Week 12, Mean (SD)",[3]; 32 mg/kg/d,−0.22 (2.827)
same,"R2 LIC Change from Baseline to Week 12, Median",[3]; 32 mg/kg/d,0.10
same,"R2 LIC Change from Baseline to Week 24, Mean (SD)",[3]; 32 mg/kg/d,−0.27 (4.950)
same,"R2 LIC Change from Baseline to Week 24, Median",[3]; 32 mg/kg/d,0.20
same,"R2 LIC Week 12, Mean (SD)",[3]; 32 mg/kg/d,13.59 (8.684)
same,"R2 LIC Week 12, Median",[3]; 32 mg/kg/d,10.70
same,"R2 LIC Week 24, Mean (SD)",[3]; 32 mg/kg/d,13.25 (8.510)
same,"R2 LIC Week 24, Median",[3]; 32 mg/kg/d,9.30
same,LIC from baseline to Weeks 12 and 24,[3]; 16 mpk,statistically significant increase
same,LIC from baseline at the first 24 weeks,[3]; 32 mpk,remained relatively unchanged
same,"R2 LIC Change from Baseline to Week 12, Mean (SD)",[3]; Total (both dose groups),1.20 (3.740)
same,"R2 LIC Change from Baseline to Week 12, Median",[3]; Total (both dose groups),0.70
same,"R2 LIC Change from Baseline to Week 24, Mean (SD)",[3]; Total (both dose groups),1.37 (5.467)
same,"R2 LIC Change from Baseline to Week 24, Median",[3]; Total (both dose groups),0.50
same,"R2 LIC Change from Baseline to Week 48, Mean (SD)",[3]; Total (both dose groups),−0.63 (3.632)
same,"R2 LIC Change from Baseline to Week 48, Median",[3]; Total (both dose groups),−0.20
same,"R2 LIC Change from Baseline to Week 72, Mean (SD)",[3]; Total (both dose groups),−0.69 (4.975)
same,"R2 LIC Change from Baseline to Week 72, Median",[3]; Total (both dose groups),−0.80
same,"R2 LIC Week 12, Mean (SD)",[3]; Total (both dose groups),14.72 (9.046)
same,"R2 LIC Week 12, Median",[3]; Total (both dose groups),11.10
same,"R2 LIC Week 24, Mean (SD)",[3]; Total (both dose groups),14.75 (9.599)
same,"R2 LIC Week 24, Median",[3]; Total (both dose groups),11.00
same,"R2 LIC Week 48, Mean (SD)",[3]; Total (both dose groups),11.74 (7.813)
same,"R2 LIC Week 48, Median",[3]; Total (both dose groups),8.80
same,"R2 LIC Week 72, Mean (SD)",[3]; Total (both dose groups),11.31 (7.904)
same,"R2 LIC Week 72, Median",[3]; Total (both dose groups),8.70
same,mean change from baseline LIC,"[3]; Week 48, 19 subjects randomized to 16 mg/kg/day",0.1 mg/g
same,mean change from baseline LIC,"[3]; Week 48, 20 subjects originally randomized to 32 mg/kg/day",-1.3 mg/g
same,difference in the mean change from baseline between treatment groups,"[3]; at 24 weeks, p<0.03",3.4 mg/g
same,dose-response in iron chelating capacity,"[3]; between 16 and 32 mpk, first 24-weeks",clear dose-response
same,LIC from Week 24,[3]; doses of 32 mpk and greater,reduction in LIC
same,subjects with lower LIC at 24 weeks compared to Baseline,[3]; high dose group (32 mg/kg/day),11 of 25
same,mean change in LIC,"[3]; high dose group (32 mg/kg/day), 24 weeks",−0.3 mg/g liver (dw)
same,subjects with lower LIC at 24 weeks compared with Baseline,[3]; low dose group (16 mg/kg/day),7 of 24
same,mean change in LIC (net gain),"[3]; low dose group (16 mg/kg/day), 24 weeks",3.1 mg/g liver (dw)
same,"R2 LIC Change from Baseline to Week 48, Mean (SD)",[3]; [4],0.09 (4.015)
same,"R2 LIC Change from Baseline to Week 48, Median",[3]; [4],0.00
same,"R2 LIC Change from Baseline to Week 72, Mean (SD)",[3]; [4],0.52 (3.654)
same,"R2 LIC Change from Baseline to Week 72, Median",[3]; [4],0.50
same,"R2 LIC Week 48, Mean (SD)",[3]; [4],11.68 (6.369)
same,"R2 LIC Week 48, Median",[3]; [4],9.30
same,"R2 LIC Week 72, Mean (SD)",[3]; [4],10.74 (6.373)
same,"R2 LIC Week 72, Median",[3]; [4],9.40
same,"R2 LIC Change from Baseline to Week 48, Mean (SD)",[3]; [5],−1.32 (3.177)
same,"R2 LIC Change from Baseline to Week 48, Median",[3]; [5],−0.90
same,"R2 LIC Change from Baseline to Week 72, Mean (SD)",[3]; [5],−1.83 (5.853)
same,"R2 LIC Change from Baseline to Week 72, Median",[3]; [5],−1.80
same,"R2 LIC Week 48, Mean (SD)",[3]; [5],11.81 (9.145)
same,"R2 LIC Week 48, Median",[3]; [5],7.70
same,"R2 LIC Week 72, Mean (SD)",[3]; [5],11.84 (9.307)
same,"R2 LIC Week 72, Median",[3]; [5],8.70
